# In patent US10835533B2, “1 -((3S,4R)-4-(3-fluorophenyl)-1-(2-methoxyethyl)pyrrolidin-3-yl)-3-(4-methyl-3-(2-methylpyrimidin-5-yl)-1-phenyl-1H-pyrazol-5-yl)urea as a TrkA kinase inhibitor” (Array BioPharma Inc., priority 2014, dated 2020):
# Tests used:
# Assay in all cases: KinaseProfiler kinase profiling
# Type in all cases: biochemical
# Settings in all cases: 10 μM, ATP near Km
# AKT3 = biological target: T1, AKT3 (Homo sapiens, UniProt Q9Y243)
# T1 construct: purchased Millipore, Inc. (KinaseProfiler service)
# How it was run: (§1)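 Off-target panel screen: compound added at 10 μM, ATP held near Km for every enzyme, two replicates each. Residual activity expressed relative to control and averaged.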
# Abl-P = biological target: T2, Abl-P (Homo sapiens, UniProt P00519)
# T2 construct: purchased Millipore, Inc. (KinaseProfiler service)
# How it was run: as §1
# BrSK2 = biological target: T3, BrSK2 (Homo sapiens, UniProt Q8IWQ3)
# T3 construct: purchased Millipore, Inc. (KinaseProfiler service)
# How it was run: as §1
# CAMK1 = biological target: T4, CAMK1 (Homo sapiens, UniProt Q14012)
# T4 construct: purchased Millipore, Inc. (KinaseProfiler service)
# How it was run: as §1
# CDK1/cyclinB = biological target: T5, CDK1/cyclinB (Homo sapiens, UniProt P06493)
# T5 construct: purchased Millipore, Inc. (KinaseProfiler service)
# How it was run: as §1
# DMPK = biological target: T6, DMPK (Homo sapiens, UniProt Q09013)
# T6 construct: purchased Millipore, Inc. (KinaseProfiler service)
# How it was run: as §1
# DYRK2 = biological target: T7, DYRK2 (Homo sapiens, UniProt Q92630)
# T7 construct: purchased Millipore, Inc. (KinaseProfiler service)
# How it was run: as §1
# ERK1 = biological target: T8, ERK1 (Homo sapiens, UniProt P27361)
# T8 construct: purchased Millipore, Inc. (KinaseProfiler service)
# How it was run: as §1
# EphA4 = biological target: T9, EphA4 (Homo sapiens, UniProt P54764)
# T9 construct: purchased Millipore, Inc. (KinaseProfiler service)
# How it was run: as §1
# EphB1 = biological target: T10, EphB1 (Homo sapiens, UniProt P54762)
# T10 construct: purchased Millipore, Inc. (KinaseProfiler service)
# How it was run: as §1
# FGFR4 = biological target: T11, FGFR4 (Homo sapiens, UniProt P22455)
# T11 construct: purchased Millipore, Inc. (KinaseProfiler service)
# How it was run: as §1
# Fes = biological target: T12, Fes (Homo sapiens, UniProt P07332)
# T12 construct: purchased Millipore, Inc. (KinaseProfiler service)
# How it was run: as §1
# Flt3 = biological target: T13, Flt3 (Homo sapiens, UniProt P36888)
# T13 construct: purchased Millipore, Inc. (KinaseProfiler service)
# How it was run: as §1
# GRK5 = biological target: T14, GRK5 (Homo sapiens, UniProt P34947)
# T14 construct: purchased Millipore, Inc. (KinaseProfiler service)
# How it was run: as §1
# GSK3beta = biological target: T15, GSK3beta (Homo sapiens, UniProt P49841)
# T15 construct: purchased Millipore, Inc. (KinaseProfiler service)
# How it was run: as §1
# HIPK1 = biological target: T16, HIPK1 (Homo sapiens, UniProt Q86Z02)
# T16 construct: purchased Millipore, Inc. (KinaseProfiler service)
# How it was run: as §1
# IRAK4 = biological target: T17, IRAK4 (Homo sapiens, UniProt Q9NWZ3)
# T17 construct: purchased Millipore, Inc. (KinaseProfiler service)
# How it was run: as §1
# JNK1alpha1 = biological target: T18, JNK1alpha1 (Homo sapiens, UniProt P45983)
# T18 construct: purchased Millipore, Inc. (KinaseProfiler service)
# How it was run: as §1
# MINK = biological target: T19, MINK (Homo sapiens, UniProt Q8N4C8)
# T19 construct: purchased Millipore, Inc. (KinaseProfiler service)
# How it was run: as §1
# MKK7 = biological target: T20, MKK7 (Homo sapiens, UniProt O14733)
# T20 construct: purchased Millipore, Inc. (KinaseProfiler service)
# How it was run: as §1
# MLK1 = biological target: T21, MLK1 (Homo sapiens, UniProt P80192)
# T21 construct: purchased Millipore, Inc. (KinaseProfiler service)
# How it was run: as §1
# PAK6 = biological target: T22, PAK6 (Homo sapiens, UniProt Q9NQU5)
# T22 construct: purchased Millipore, Inc. (KinaseProfiler service)
# How it was run: as §1
# PKCbetaI = biological target: T23, PKCbetaI (Homo sapiens, UniProt P05771)
# T23 construct: purchased Millipore, Inc. (KinaseProfiler service)
# How it was run: as §1
# PKCdelta = biological target: T24, PKCdelta (Homo sapiens, UniProt Q05655)
# T24 construct: purchased Millipore, Inc. (KinaseProfiler service)
# How it was run: as §1
# PKCepsilon = biological target: T25, PKCepsilon (Homo sapiens, UniProt Q02156)
# T25 construct: purchased Millipore, Inc. (KinaseProfiler service)
# How it was run: as §1
# PKCgamma = biological target: T26, PKCgamma (Homo sapiens, UniProt P05129)
# T26 construct: purchased Millipore, Inc. (KinaseProfiler service)
# How it was run: as §1
# PTK5 = biological target: T27, PTK5 (Homo sapiens, UniProt P42685)
# T27 construct: purchased Millipore, Inc. (KinaseProfiler service)
# How it was run: as §1
# Ron = biological target: T28, Ron (Homo sapiens, UniProt Q04912)
# T28 construct: purchased Millipore, Inc. (KinaseProfiler service)
# How it was run: as §1
# SGK1 = biological target: T29, SGK1 (Homo sapiens, UniProt O00141)
# T29 construct: purchased Millipore, Inc. (KinaseProfiler service)
# How it was run: as §1
# TAO1 = biological target: T30, TAO1 (Homo sapiens, UniProt Q7L7X3)
# T30 construct: purchased Millipore, Inc. (KinaseProfiler service)
# How it was run: as §1
# TBK1 = biological target: T31, TBK1 (Homo sapiens, UniProt Q9UHD2)
# T31 construct: purchased Millipore, Inc. (KinaseProfiler service)
# How it was run: as §1
# TNK2 = biological target: T32, TNK2 (Homo sapiens, UniProt Q07912)
# T32 construct: purchased Millipore, Inc. (KinaseProfiler service)
# How it was run: as §1
# WNK2 = biological target: T33, WNK2 (Homo sapiens, UniProt Q9Y3S1)
# T33 construct: purchased Millipore, Inc. (KinaseProfiler service)
# How it was run: as §1
# Yes = biological target: T34, Yes (Homo sapiens, UniProt P07947)
# T34 construct: purchased Millipore, Inc. (KinaseProfiler service)
# How it was run: as §1
# T7 sequence (Q92630 whole entry): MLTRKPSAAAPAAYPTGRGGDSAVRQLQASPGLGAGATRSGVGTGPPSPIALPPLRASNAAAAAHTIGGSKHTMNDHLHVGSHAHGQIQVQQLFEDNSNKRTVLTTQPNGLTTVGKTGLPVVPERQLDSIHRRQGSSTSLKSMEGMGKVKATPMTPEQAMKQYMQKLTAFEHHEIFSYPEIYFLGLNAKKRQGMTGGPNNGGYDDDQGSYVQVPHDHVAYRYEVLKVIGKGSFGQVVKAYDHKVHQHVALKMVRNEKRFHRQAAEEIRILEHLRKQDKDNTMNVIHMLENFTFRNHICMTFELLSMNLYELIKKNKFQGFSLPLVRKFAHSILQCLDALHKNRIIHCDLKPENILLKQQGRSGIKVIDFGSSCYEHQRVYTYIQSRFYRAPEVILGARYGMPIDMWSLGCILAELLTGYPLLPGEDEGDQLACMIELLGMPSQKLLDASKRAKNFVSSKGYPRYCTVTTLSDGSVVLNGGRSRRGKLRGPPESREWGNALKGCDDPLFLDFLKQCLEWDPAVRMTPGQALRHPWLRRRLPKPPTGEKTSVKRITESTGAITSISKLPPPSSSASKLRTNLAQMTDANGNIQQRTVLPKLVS
# T13 sequence (P36888 27-993): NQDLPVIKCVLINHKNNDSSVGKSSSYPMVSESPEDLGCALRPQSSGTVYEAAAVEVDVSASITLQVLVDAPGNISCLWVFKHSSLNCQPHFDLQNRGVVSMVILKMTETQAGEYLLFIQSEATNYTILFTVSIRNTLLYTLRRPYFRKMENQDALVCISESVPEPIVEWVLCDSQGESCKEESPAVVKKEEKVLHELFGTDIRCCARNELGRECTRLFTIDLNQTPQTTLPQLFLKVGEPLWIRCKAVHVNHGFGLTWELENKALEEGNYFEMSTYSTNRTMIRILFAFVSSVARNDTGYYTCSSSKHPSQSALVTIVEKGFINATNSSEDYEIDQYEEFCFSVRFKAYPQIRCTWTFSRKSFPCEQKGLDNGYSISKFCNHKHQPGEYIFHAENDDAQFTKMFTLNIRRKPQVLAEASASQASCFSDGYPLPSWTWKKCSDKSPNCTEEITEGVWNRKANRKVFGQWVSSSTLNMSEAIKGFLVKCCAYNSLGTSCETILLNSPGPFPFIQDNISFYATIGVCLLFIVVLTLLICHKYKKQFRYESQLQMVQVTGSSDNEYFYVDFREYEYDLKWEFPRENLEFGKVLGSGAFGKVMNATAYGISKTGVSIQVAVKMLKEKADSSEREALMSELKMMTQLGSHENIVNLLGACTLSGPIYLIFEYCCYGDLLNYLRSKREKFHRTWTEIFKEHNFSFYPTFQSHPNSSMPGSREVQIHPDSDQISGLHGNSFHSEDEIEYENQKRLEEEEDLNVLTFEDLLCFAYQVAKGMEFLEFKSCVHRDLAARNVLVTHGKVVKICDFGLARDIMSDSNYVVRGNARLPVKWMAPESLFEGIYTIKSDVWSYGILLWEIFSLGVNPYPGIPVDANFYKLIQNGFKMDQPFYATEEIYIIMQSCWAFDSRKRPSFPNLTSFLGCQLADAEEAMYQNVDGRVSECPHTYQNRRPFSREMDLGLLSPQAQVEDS
# T3 sequence (Q8IWQ3 whole entry): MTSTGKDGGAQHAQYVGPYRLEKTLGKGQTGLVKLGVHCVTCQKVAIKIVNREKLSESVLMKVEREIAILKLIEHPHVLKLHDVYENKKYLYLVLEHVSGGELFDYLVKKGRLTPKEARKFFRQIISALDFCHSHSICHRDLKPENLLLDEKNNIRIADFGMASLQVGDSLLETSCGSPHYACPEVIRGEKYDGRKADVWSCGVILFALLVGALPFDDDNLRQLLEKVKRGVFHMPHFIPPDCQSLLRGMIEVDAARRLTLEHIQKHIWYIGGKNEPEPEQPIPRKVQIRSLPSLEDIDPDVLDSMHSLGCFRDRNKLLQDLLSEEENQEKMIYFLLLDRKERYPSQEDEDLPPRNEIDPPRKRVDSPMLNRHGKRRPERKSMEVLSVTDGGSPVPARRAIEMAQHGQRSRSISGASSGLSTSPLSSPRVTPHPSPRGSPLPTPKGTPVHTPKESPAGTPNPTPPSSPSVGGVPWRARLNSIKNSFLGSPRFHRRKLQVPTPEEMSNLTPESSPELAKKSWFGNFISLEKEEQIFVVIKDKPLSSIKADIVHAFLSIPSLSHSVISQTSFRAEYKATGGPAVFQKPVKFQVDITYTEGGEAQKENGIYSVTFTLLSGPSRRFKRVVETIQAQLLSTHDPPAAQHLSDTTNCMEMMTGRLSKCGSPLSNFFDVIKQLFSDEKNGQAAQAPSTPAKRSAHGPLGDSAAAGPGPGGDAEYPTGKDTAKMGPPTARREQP
# T30 sequence (Q7L7X3 whole entry): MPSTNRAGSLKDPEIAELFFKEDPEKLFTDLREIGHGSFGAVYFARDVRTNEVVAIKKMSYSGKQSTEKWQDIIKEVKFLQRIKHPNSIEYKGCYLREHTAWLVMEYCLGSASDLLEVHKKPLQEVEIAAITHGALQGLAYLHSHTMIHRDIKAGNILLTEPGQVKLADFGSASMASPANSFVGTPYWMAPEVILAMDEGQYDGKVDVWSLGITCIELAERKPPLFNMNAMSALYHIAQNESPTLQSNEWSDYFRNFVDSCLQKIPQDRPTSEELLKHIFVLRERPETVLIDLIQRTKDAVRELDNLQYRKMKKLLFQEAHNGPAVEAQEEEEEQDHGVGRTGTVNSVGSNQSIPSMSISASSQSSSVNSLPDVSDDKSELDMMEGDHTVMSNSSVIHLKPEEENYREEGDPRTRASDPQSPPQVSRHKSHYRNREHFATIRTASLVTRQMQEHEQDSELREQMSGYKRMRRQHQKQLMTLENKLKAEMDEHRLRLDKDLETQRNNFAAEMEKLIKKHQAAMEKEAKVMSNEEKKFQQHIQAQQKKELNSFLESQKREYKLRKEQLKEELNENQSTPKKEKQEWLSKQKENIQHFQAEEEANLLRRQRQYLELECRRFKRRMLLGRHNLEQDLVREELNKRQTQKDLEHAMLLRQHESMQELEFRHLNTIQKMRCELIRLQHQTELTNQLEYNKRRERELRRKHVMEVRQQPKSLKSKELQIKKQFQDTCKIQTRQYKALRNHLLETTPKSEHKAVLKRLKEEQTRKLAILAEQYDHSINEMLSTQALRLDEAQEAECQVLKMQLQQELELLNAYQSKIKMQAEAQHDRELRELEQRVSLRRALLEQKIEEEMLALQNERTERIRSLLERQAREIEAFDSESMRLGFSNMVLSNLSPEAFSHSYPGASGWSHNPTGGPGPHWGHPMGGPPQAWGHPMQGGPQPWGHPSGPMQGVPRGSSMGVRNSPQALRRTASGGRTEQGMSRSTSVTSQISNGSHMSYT
# T22 sequence (Q9NQU5 whole entry): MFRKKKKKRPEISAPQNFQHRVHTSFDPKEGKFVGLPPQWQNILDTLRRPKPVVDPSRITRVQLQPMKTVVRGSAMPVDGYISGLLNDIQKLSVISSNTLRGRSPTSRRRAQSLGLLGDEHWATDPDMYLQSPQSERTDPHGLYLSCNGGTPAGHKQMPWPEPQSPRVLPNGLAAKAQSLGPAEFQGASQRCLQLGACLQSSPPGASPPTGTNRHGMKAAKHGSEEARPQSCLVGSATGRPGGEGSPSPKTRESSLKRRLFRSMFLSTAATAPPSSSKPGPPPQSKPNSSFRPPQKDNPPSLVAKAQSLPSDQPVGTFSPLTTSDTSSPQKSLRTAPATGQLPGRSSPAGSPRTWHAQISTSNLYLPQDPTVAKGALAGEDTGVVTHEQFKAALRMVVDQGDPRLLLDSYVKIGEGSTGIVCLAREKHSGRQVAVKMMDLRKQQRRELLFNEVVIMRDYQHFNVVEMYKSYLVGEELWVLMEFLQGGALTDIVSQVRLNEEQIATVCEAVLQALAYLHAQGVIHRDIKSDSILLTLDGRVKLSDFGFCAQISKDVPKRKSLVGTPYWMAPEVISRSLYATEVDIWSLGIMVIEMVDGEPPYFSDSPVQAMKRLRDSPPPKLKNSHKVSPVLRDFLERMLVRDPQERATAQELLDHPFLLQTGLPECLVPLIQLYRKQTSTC
# T8 sequence (P27361 whole entry): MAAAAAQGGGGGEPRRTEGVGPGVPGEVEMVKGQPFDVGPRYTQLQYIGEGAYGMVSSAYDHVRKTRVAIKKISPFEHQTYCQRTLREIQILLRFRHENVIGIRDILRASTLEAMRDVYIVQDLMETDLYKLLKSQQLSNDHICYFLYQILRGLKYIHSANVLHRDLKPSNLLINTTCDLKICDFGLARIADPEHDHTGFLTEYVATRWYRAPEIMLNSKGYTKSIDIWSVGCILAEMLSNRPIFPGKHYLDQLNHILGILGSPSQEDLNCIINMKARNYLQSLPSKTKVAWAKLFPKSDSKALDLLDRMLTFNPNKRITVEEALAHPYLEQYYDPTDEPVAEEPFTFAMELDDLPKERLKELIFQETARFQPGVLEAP
# T15 sequence (P49841 whole entry): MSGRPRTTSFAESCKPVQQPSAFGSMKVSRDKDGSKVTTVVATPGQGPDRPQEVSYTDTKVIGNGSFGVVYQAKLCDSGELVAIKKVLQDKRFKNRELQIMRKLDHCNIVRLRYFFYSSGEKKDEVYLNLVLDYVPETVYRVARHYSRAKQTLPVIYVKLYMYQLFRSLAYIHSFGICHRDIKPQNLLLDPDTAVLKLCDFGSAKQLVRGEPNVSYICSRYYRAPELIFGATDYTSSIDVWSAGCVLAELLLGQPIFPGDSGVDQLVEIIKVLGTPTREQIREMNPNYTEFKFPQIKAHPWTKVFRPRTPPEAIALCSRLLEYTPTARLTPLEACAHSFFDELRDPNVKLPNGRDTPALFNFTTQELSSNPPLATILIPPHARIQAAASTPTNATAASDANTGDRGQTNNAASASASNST
smiles,measurement,setting,value
"COCCN1C[C@@H](NC(=O)Nc2c(C)c(-c3cnc(C)nc3)nn2-c2ccccc2)[C@H](c2cccc(F)c2)C1 [Compound 1, 1-((3S,4R)-4-(3-fluorophenyl)-1-(2-methoxyethyl)pyrrolidin-3-yl)-3-(4-methyl-3-(2-methylpyrimidin-5-yl)-1-phenyl-1H-pyrazol-5-yl)urea]",Avg POC,AKT3,113.5 POC
same,Avg POC,Abl-P,110.5 POC
same,Avg POC,BrSK2,104 POC
same,Avg POC,CAMK1,104.5 POC
same,Avg POC,CDK1/cyclinB,108 POC
same,Avg POC,DMPK,98.5 POC
same,Avg POC,DYRK2,102 POC
same,Avg POC,ERK1,94.5 POC
same,Avg POC,EphA4,98 POC
same,Avg POC,EphB1,105.5 POC
same,Avg POC,FGFR4,105 POC
same,Avg POC,Fes,102.5 POC
same,Avg POC,Flt3,102 POC
same,Avg POC,GRK5,100 POC
same,Avg POC,GSK3beta,112 POC
same,Avg POC,HIPK1,98.5 POC
same,Avg POC,IRAK4,98 POC
same,Avg POC,JNK1alpha1,95 POC
same,Avg POC,MINK,105 POC
same,Avg POC,MKK7,125 POC
same,Avg POC,MLK1,109.5 POC
same,Avg POC,PAK6,114.5 POC
same,Avg POC,PKCbetaI,102.5 POC
same,Avg POC,PKCdelta,102 POC
same,Avg POC,PKCepsilon,101.5 POC
same,Avg POC,PKCgamma,98 POC
same,Avg POC,PTK5,105 POC
same,Avg POC,Ron,100 POC
same,Avg POC,SGK1,105 POC
same,Avg POC,TAO1,96 POC
same,Avg POC,TBK1,114.5 POC
same,Avg POC,TNK2,93.5 POC
same,Avg POC,WNK2,92.5 POC
same,Avg POC,Yes,98.5 POC
